Source: patent publication US20240228488A1 (TAKEDA PHARMACEUTICAL COMPANY LIMITED, priority 2021, published 2024)

Key:
[1] = biological target: human activated kallikrein enzyme (Homo sapiens, UniProt P03952); assay: Plasma kallikrein inhibition, fluorogenic PFR-AMC substrate, 500 pM activated kallikrein format; format: biochemical; settings: 500 pM activated kallikrein, 300 uM PFR-AMC, 30 min preincubation, 10 min reaction; read-out: Primary Dose Response Assay: Average EC50
Procedure, shortened: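 Fluorescence (ex 380/em 460 nm) is read after 10 min of 300 uM PFR-AMC turnover by 500 pM enzyme at RT. Compounds sit with enzyme for 30 min beforehand. Buffer is Tris (pH 7.5) with EDTA, NaCl, PEG-400 and Triton X-100; EC50 values are banded.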

plasma kallikrein = biological target: T1, plasma kallikrein (Homo sapiens, UniProt P03952); assay: Neat human plasma assay, FXIIa contact pathway-activated, PFR-AMC substrate; format: biochemical; settings: citrated human plasma 78% final, 10 nM human FXIIa, 100 μM PFR-AMC; read-out: Human Plasma Assay: IC90
T1 construct: from tissue
T1 sequence (P03952 391-638 limits assumed): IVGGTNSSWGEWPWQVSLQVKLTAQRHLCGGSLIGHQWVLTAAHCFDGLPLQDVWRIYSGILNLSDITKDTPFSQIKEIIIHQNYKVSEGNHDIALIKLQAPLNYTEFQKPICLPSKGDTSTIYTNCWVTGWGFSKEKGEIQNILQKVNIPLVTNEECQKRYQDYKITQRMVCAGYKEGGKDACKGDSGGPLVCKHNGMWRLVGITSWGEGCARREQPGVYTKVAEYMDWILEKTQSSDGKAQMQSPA
T1 sequence (P03952 20-390 partner limits assumed): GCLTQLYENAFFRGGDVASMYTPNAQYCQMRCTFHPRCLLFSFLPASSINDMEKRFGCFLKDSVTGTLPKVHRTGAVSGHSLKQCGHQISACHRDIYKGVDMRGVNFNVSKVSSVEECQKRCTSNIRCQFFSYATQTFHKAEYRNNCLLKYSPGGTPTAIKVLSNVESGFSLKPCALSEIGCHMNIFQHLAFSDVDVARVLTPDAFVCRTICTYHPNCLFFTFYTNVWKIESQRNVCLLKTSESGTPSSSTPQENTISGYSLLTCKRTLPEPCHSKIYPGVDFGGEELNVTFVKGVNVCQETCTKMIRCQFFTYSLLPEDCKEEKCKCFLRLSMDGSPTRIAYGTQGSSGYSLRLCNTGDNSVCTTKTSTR
Description: To analyze inhibition of plasma kallikrein in an ex vivo setting, the potency of compounds was measure in contact pathway-activated plasma assays. In a fluorogenic peptide substrate assay, test compounds dissolved in DMSO were added to sodium citrate collected human or rat plasma in a 96-well microplate. Alternatively, citrated plasma was collected from rats administered the compounds orally or by IV. 10 nM of human FXIIa (Enzyme Research Laboratories) diluted in pKal buffer (20 mM Tris-HCl, pH 7.5, 150 mM NaCl, 1 mM EDTA, 0.1% PEG-8000, and 0.1% Triton X-100) was added to the plasma, followed by the 100 μM of the profluorescent, synthetic plasma kallikrein substrate PFR-AMC (also diluted in pKal buffer). Final plasma concentration in the reaction was 78%. Fluorescence was immediately monitored by excitation/emission wavelengths of 360 nm/480 nm respectively over a period of 5 minutes in a microplate reader. The resulting linear increase in fluorescence emission (reflecting pKal proteolysis of PFR-AMC substrate) was fit to extract a proteolytic rate (fluorescent units over time), and this rate was subsequently plotted against compound inhibitor concentration. Resulting plots were fit to a standard 4-parameter IC50/IC90 equation to determine min/max values, IC50/90, and slope. All experimental steps were performed at room temperature. Table 50 provides results of the assay.

Chain of human activated kallikrein enzyme (P03952 391-638 limits assumed): as the sequence (P03952 391-638 limits assumed) above
Chain of human activated kallikrein enzyme (P03952 20-390 partner limits assumed): as the sequence (P03952 20-390 partner limits assumed) above

SMILES	EC50 [1] [nM]	IC90 (plasma kallikrein) [µM]
CN(C)C1CCN(c2cc(C3CC3)cn3cc(CNc4cc(NC(=O)[C@H]5C[C@@H]5c5cccc(Cl)c5)ncn4)nc23)C1 (mixture of isomers) [Example I-13, (1S,2S)-2-(3-chlorophenyl)-N-(6-(((6-cyclopropyl-8-(3-(dimethylamino)pyrrolidin-1-yl)imidazo[1,2-a]pyridin-2-yl)methyl)amino)pyrimidin-4-yl)cyclopropane-1-carboxamide]	1 to 10	1.5 to 10
Cc1ccnc([C@H]2C[C@@H]2C(=O)Nc2cc(OCc3cn4cc(C5CC5)cc(N5CC(=O)N(CCOCc6ccccc6)C5=O)c4n3)ncn2)n1 (racemic) [Example 31, rac-(1S*,2S*)—N-(6-((8-(3-(2-(benzyloxy)ethyl)-2,4-dioxoimidazolidin-1-yl)-6-cyclopropylimidazo[1,2-a]pyridin-2-yl)methoxy)pyrimidin-4-yl)-2-(4-methylpyrimidin-2-ylcyclopropane-1-carboxamide]	1 to 10	10 to 48
O=C(Nc1cc(NCc2cn3cc(Cl)ccc3n2)ccn1)[C@H]1C[C@@H]1c1cccc(Cl)c1 [Example I-253, (1S,2S)-N-(4-(((6-chloroimidazo[1,2-a]pyridin-2-yl)methyl)amino)pyridin-2-yl)-2-(3-chlorophenyl)cyclopropane-1-carboxamide]	1 to 10	
CN1CCN(c2cc(C3CC3)cn3cc(CNc4cncc(NC(=O)[C@H]5C[C@@H]5c5cccc(Cl)c5)n4)nc23)CC1 [Example I-255, (1S,2S)-2-(3-chlorophenyl)-N-(6-(((6-cyclopropyl-8-(4-methylpiperazin-1-yl)imidazo[1,2-a]pyridin-2-yl)methyl)amino)pyrazin-2-yl)cyclopropane-1-carboxamide]	1 to 10	
Cc1cc(NCc2cn3cc(C4CC4)cc(N4CC(=O)N(C)C4=O)c3n2)cc(NC(=O)[C@H]2C[C@@H]2c2nccc(C)n2)n1 [Example I-642, (1S,2S)—N-(4-(((6-cyclopropyl-8-(3-methyl-2,4-dioxoimidazolidin-1-yl)imidazo[1,2-a]pyridin-2-yl)methyl)amino)-6-methylpyridin-2-yl)-2-(4-methylpyrimidin-2-yl)cyclopropane-1-carboxamide]	< 1	
Cc1ccnc([C@H]2C[C@@H]2C(=O)Nc2cccc(OCc3cn4cc(C5CC5)cc(N5CC(=O)N(C)C5=O)c4n3)c2)n1 [Example I-643, (1S,2S)—N-(3-((6-cyclopropyl-8-(3-methyl-2,4-dioxoimidazolidin-1-yl)imidazo[1,2-a]pyridin-2-yl)methoxy)phenyl)-2-(4-methylpyrimidin-2-yl)cyclopropane-1-carboxamide]	< 1	
Cc1ccnc([C@H]2C[C@@H]2C(=O)Nc2cccc(NCc3cn4cc(C5CC5)cc(N5CC(=O)N(C)C5=O)c4n3)c2)n1 [Example I-644, (1S,2S)—N-(3-(((6-cyclopropyl-8-(3-methyl-2,4-dioxoimidazolidin-1-yl)imidazo[1,2-a]pyridin-2-yl)methyl)amino)phenyl)-2-(4-methylpyrimidin-2-yl)cyclopropane-1-carboxamide]	< 1	
Cc1ccnc([C@H]2C[C@@H]2C(=O)Nc2cccc(SCc3cn4cc(C5CC5)cc(N5CC(=O)N(C)C5=O)c4n3)c2)n1 [Example I-645, (1S,2S)—N-(3-(((6-cyclopropyl-8-(3-methyl-2,4-dioxoimidazolidin-1-yl)imidazo[1,2-a]pyridin-2-yl)methyl)thio)phenyl)-2-(4-methylpyrimidin-2-yl)cyclopropane-1-carboxamide]	10 to 100	
Cc1ccnc([C@H]2C[C@@H]2C(=O)Nc2cccc(S(=O)(=O)Cc3cn4cc(C5CC5)cc(N5CC(=O)N(C)C5=O)c4n3)c2)n1 [Example I-646, (1S,2S)—N-(3-(((6-cyclopropyl-8-(3-methyl-2,4-dioxoimidazolidin-1-yl)imidazo[1,2-a]pyridin-2-yl)methyl)sulfonyl)phenyl)-2-(4-methylpyrimidin-2-yl)cyclopropane-1-carboxamide]	> 6000	
Cc1ccnc([C@H]2C[C@@H]2C(=O)Nc2cc(NC(CO)c3cn4cc(C5CC5)cc(N5CC(=O)N(C)C5=O)c4n3)nc(C)n2)n1 (stereo partly drawn) [Example I-650, (1S,2S)—N-(6-((1-(6-cyclopropyl-8-(3-methyl-2,4-dioxoimidazolidin-1-yl)imidazo[1,2-a]pyridin-2-yl)-2-hydroxyethyl)amino)-2-methylpyrimidin-4-yl)-2-(4-methylpyrimidin-2-yl)cyclopropane-1-carboxamide]	< 1	
CCOC(=O)c1cnc(NC(=O)[C@H]2C[C@@H]2c2nccc(C)n2)nc1OCc1cn2cc(C3CC3)cc(N3CC(=O)N(C)C3=O)c2n1 [Example I-654, ethyl 4-((6-cyclopropyl-8-(3-methyl-2,4-dioxoimidazolidin-1-yl)imidazo[1,2-a]pyridin-2-yl)methoxy)-2-((1S,2S)-2-(4-methylpyrimidin-2-yl)cyclopropane-1-carboxamido)pyrimidine-5-carboxylate]	< 1	
Cc1ccnc([C@H]2C[C@@H]2C(=O)Nc2cc(C#N)cc(NCc3cn4cc(C5CC5)cc(N5CC(=O)N(C)C5=O)c4n3)c2)n1 [Example I-655, (1S,2S)—N-(3-cyano-5-(((6-cyclopropyl-8-(3-methyl-2,4-dioxoimidazolidin-1-yl)imidazo[1,2-a]pyridin-2-yl)methyl)amino)phenyl)-2-(4-methylpyrimidin-2-yl)cyclopropane-1-carboxamide]	< 1	

Now from value to compound:

EC50 [1] [nM]	IC90 (plasma kallikrein) [µM]	SMILES
< 1	0.4 to 1.5	Cc1ccnc([C@@H]2C[C@H]2C(=O)Nc2cc(OCc3cn4cc(C5CC5)cc(N5CC(=O)N(C)C5=O)c4n3)ncn2)n1 (racemic) [Example 28, rac-(1S*,2S*)—N-(6-((6-cyclopropyl-8-(3-methyl-2,4-dioxoimidazolidin-1-yl)imidazo[1,2-a]pyridin-2-yl)methoxy)pyrimidin-4-yl)-2-(4-methylpyrimidin-2-yl)cyclopropane-1-carboxamide]
< 1		Cc1ccnc([C@H]2C[C@@H]2C(=O)Nc2cc3c(cn2)nnn3Cc2cn3cc(C4CC4)cc(N4CC(=O)N(C)C4=O)c3n2)n1 [Example I-635, (1S,2S)—N-(1-((6-cyclopropyl-8-(3-methyl-2,4-dioxoimidazolidin-1-yl)imidazo[1,2-a]pyridin-2-yl)methyl)-1H-[1,2,3]triazolo[4,5-c]pyridin-6-yl)-2-(4-methylpyrimidin-2-yl)cyclopropane-1-carboxamide]
< 1		Cc1ccnc([C@H]2C[C@@H]2C(=O)Nc2cnnc(OCc3cn4cc(C5CC5)cc(N5CC(=O)N(C)C5=O)c4n3)c2)n1 [Example I-648, (1S,2S)—N-(6-((6-cyclopropyl-8-(3-methyl-2,4-dioxoimidazolidin-1-yl)imidazo[1,2-a]pyridin-2-yl)methoxy)pyridazin-4-yl)-2-(4-methylpyrimidin-2-yl)cyclopropane-1-carboxamide]
< 1		Cc1ccnc([C@H]2C[C@@H]2C(=O)Nc2nccn3nc(Cc4cn5cc(C6CC6)cc(N6CC(=O)N(C)C6=O)c5n4)cc23)n1 [Example I-649, (1S,2S)—N-(2-((6-cyclopropyl-8-(3-methyl-2,4-dioxoimidazolidin-1-yl)imidazo[1,2-a]pyridin-2-yl)methyl)pyrazolo[1,5-a]pyrazin-4-yl)-2-(4-methylpyrimidin-2-yl)cyclopropane-1-carboxamide]
< 1		Cc1ccnc([C@H]2C[C@@H]2C(=O)Nc2nncc(NCc3cn4cc(C5CC5)cc(N5CC(=O)N(C)C5=O)c4n3)n2)n1 [Example I-651, (1S,2S)—N-(5-(((6-cyclopropyl-8-(3-methyl-2,4-dioxoimidazolidin-1-yl)imidazo[1,2-a]pyridin-2-yl)methyl)amino)-1,2,4-triazin-3-yl)-2-(4-methylpyrimidin-2-yl)cyclopropane-1-carboxamide]
< 1		Cc1cc(NC(=O)[C@H]2C[C@@H]2c2nccc(C)n2)nc(OCc2cn3cc(C4CC4)cc(N4CC(=O)N(C)C4=O)c3n2)n1 [Example I-652, (1S,2S)—N-(2-((6-cyclopropyl-8-(3-methyl-2,4-dioxoimidazolidin-1-yl)imidazo[1,2-a]pyridin-2-yl)methoxy)-6-methylpyrimidin-4-yl)-2-(4-methylpyrimidin-2-yl)cyclopropane-1-carboxamide]
< 1		Cc1ccnc([C@H]2C[C@@H]2C(=O)Nc2cc(CCc3cn4cc(C5CC5)cc(N5CC(=O)N(C)C5=O)c4n3)ccn2)n1 [Example I-653, (1S,2S)—N-(4-(2-(6-cyclopropyl-8-(3-methyl-2,4-dioxoimidazolidin-1-yl)imidazo[1,2-a]pyridin-2-yl)ethyl)pyridin-2-yl)-2-(4-methylpyrimidin-2-yl)cyclopropane-1-carboxamide]
